These results are taken from US20190225650A1, “PEPTIDOMIMETIC MACROCYCLES AND USE THEREOF IN REGULATING HIF1ALPHA” (AILERON THERAPEUTICS, INC., priority 2013, published 2019).

One may read the EC50 as the concentration at which the effect is half-maximal.

The subject of the assay is HRE-bla ME-180 cells. The experiment in a line: Reporter gene assay (HRE-bla ME-180 HIF reporter, GeneBLAzer). The assay is classed as cell-based, human. The settings on record: for EC50: 24 hour normoxia. How it is done:
The following reagents were used:
• DMEM+GutaMAX: (#10569044, Invitrogen) • Black clear bottom plates: (#3603, Costar) • HRE-bla-ME-180 cell line: (#K1644, Invitrogen) • Gene-Blazer reagent & protocol: (#K1096, Invitrogen) • Plate reader: Biotek Synergy 2 • Chetomin: (C9623, Sigma)
4 hours prior to experiment: HRE-bla ME-180 cells were seeded at a density of 20,000 cells/well in a volume of 180 μl in black clear bottom 96-well plates. 180 μl of assay medium was added to the cell-free control wells. Incubation was conducted at 37° C., 5% CO2 for 4 hours.
Diluted chetomin was used as a positive control. Chetomin was diluted in 100% DMSO to a 10 mM stock concentration. A 1 mM stock of chetomin was prepared in 100% DMSO. Then the 1 mM chetomin stock was serially diluted in 1:4 in 100% DMSO. Finally, 50, 12.5, 3.125, 0.78, 0.2, 0.05 μM stock of chetomin in 5% DMSO/water were prepared by adding 114 μL water+6 μL chetomin in DMSO.
Test peptides were diluted before use. The test peptides were diluted in 100% DMSO to a 10 mM stock concentration. Then each 10 mM peptide stock was diluted in 1:3 in 100% DMSO. Finally, 300, 100, 33.3, 11.1, 3.7, 1.2 μM stock of each peptide in 5% DMSO/water were prepared by adding 129.2 μL water+4 μL peptide in DMSO.
20 μl of peptide, chetomin dilution, or DMSO/water control were added to the appropriate wells of a plate to achieve 200 μL final volumes in 0.3% DMSO/media. The plate was first incubated for 18-20 hours in normoxia incubator (37° C. in humidified 5% CO2, 20% O2 atmosphere). Then the plate was transferred to hypoxia incubator for 24 hours (37° C. in humidified 5% CO2, 1% O2 atmosphere)
6× LiveBLAzer™-FRET B/G (CCF4-AM) Substrate Mixture was prepared according to CellSensor™ HRE-bla ME-180 Cell-based Assay Protocol (Invitrogen) and added into each well. Solution A (CCF4-AM) was reconstituted in DMSO to a working concentration of 1 mM, divided in aliquots, and stored at −20° C. The 6× LiveBLAzer-FRET B/G (CCF4-AM) Substrate mixture was prepared by mixing 6 μl of Solution A, 60 μl of Solution B, and 934 μl Solution C.
The plates were removed from incubator and equilibrated to RT for a few minutes. Then 20 μl of 6× Substrate mixture was added to each well. The plates were then incubated at room temperature for 3 hr in the dark and read at 409 Ex/460Em and 409Ex/530Em using the “GeneBlazer-Tungsten with export” program on the Synergy 2.
The average percentage of maximum inhibition was obtained by comparing the peptide treated cells (30 μM) to DMSO vehicle control treated cells. The results are shown in the columns “ME-180 HIF Reporter EC50 (μM) −24 hr normoxia” and “18 h Avg % max inhibition at top conc (HIF Rptr-24 hrsnormoxia) (μM)” of Table 6.
A general note: In a reporter assay the amount or activity of a reporter protein is the signal.

Bridge positions count the residues as written; N and C are the ends. Square brackets hold non-standard residues; d marks the D form. Peptide text beside a SMILES is read from it. S5 = C=CCCC[C@](C)(N)C(=O)O; Nle = CCCC[C@H](N)C(=O)O; Dap = NC[C@H](N)C(=O)O

Consider `CCCC[C@H](NC(=O)[C@H](CC(C)C)NC(=O)[C@@H](NC(=O)[C@H](CN)NC(=O)[C@H](CCC(=O)O)NC(=O)[C@H](CC(=O)O)NC(=O)[C@@H](NC(=O)[C@H](Cc1ccccc1)NC(C)=O)[C@@H](C)CC)C(C)C)C(=O)N[C@@]1(C)CCCC=CCCC[C@@](C)(C(=O)N[C@@H](CCCC)C(=O)N[C@@H](C)C(=O)N[C@@H](CC(C)C)C(=O)N[C@@H](CC(=O)O)C(=O)N[C@@H](CCCNC(=N)N)C(=O)N[C@H](C(N)=O)[C@@H](C)CC)NC(=O)[C@H]([C@@H](C)CC)NC(=O)[C@H](C(C)C)NC(=O)[C@H](CC(C)C)NC1=O` [SP-63] (Ac-FIDE[Dap]VL[Nle][S5]LVI[S5][Nle]ALDRI-NH2; staple 9-13), for which the “18 h Avg % max inhibition at top conc (HIF Rptr-24 hrs normoxia) (μM)” value (“18 h Avg % max inhibition at top conc” for short) is reported as “+++ (≤25 but <50: +++)” and the EC50 was 5 to 15 µM.

Consider `CCCC[C@H](NC(=O)[C@H](CC(C)C)NC(=O)[C@@H](NC(=O)[C@H](CCC(=O)O)NC(=O)[C@H](C)NC(=O)[C@H](CC(=O)O)NC(=O)[C@@H](NC(=O)[C@H](Cc1ccccc1)NC(C)=O)[C@@H](C)CC)C(C)C)C(=O)N[C@@]1(C)CCCC=CCCC[C@@](C)(C(=O)N[C@@H](CCCC)C(=O)N[C@@H](C)C(=O)N[C@@H](CC(C)C)C(=O)N[C@@H](CC(=O)O)C(=O)N[C@@H](CCCNC(=N)N)C(=O)N[C@H](C(N)=O)[C@@H](C)CC)NC(=O)[C@H]([C@@H](C)CC)NC(=O)[C@H](C(C)C)NC(=O)[C@H](CC(C)C)NC1=O` [SP-12] (Ac-FIDAEVL[Nle][S5]LVI[S5][Nle]ALDRI-NH2; staple 9-13), for which the “18 h Avg % max inhibition at top conc” value is listed as “++++ (≥50: ++++)” and the EC50 was 5 to 15 µM.

Turning to `CCCC[C@H](NC(=O)[C@H](CC(C)C)NC(=O)[C@@H](NC(=O)[C@H](CCC(=O)O)NC(=O)[C@H](CCC(=O)O)NC(=O)[C@H](CC(=O)O)NC(=O)[C@@H](NC(=O)[C@H](Cc1ccccc1)NC(C)=O)[C@@H](C)CC)C(C)C)C(=O)N[C@@]1(C)CCCC=CCCC[C@@](C)(C(=O)N[C@@H](CCCC)C(=O)N[C@@H](C)C(=O)N[C@@H](CC(C)C)C(=O)N[C@@H](CC(=O)O)C(=O)N[C@@H](CCCNC(=N)N)C(=O)N[C@H](C(N)=O)[C@@H](C)CC)NC(=O)[C@H]([C@@H](C)CC)NC(=O)[C@H](CO)NC(=O)[C@H](CC(C)C)NC1=O` [SP-52] (Ac-FIDEEVL[Nle][S5]LSI[S5][Nle]ALDRI-NH2; staple 9-13), the “18 h Avg % max inhibition at top conc” value was “++++ (≥50: ++++)” and the EC50 was 15 to 30 µM.

On to `CCCC[C@H](NC(=O)[C@H](CC(C)C)NC(=O)[C@@H](NC(=O)[C@H](CCC(=O)O)NC(=O)[C@H](CCC(=O)O)NC(=O)[C@H](CC(=O)O)NC(=O)[C@@H](NC(=O)[C@H](Cc1ccccc1)NC(C)=O)[C@@H](C)CC)C(C)C)C(=O)N[C@@]1(C)CCCC=CCCC[C@@](C)(C(=O)N[C@@H](CCCC)C(=O)N[C@@H](C)C(=O)N[C@@H](CC(C)C)C(=O)N[C@@H](CC(=O)O)C(=O)N[C@@H](CCCNC(=N)N)C(=O)N[C@H](C(N)=O)[C@@H](C)CC)NC(=O)[C@H](CO)NC(=O)[C@H](C(C)C)NC(=O)[C@H](CC(C)C)NC1=O` [SP-53] (Ac-FIDEEVL[Nle][S5]LVS[S5][Nle]ALDRI-NH2; staple 9-13), for which the “18 h Avg % max inhibition at top conc” value was “+++ (≤25 but <50: +++)” and the EC50 lay in the range of 5 to 15 µM.

Take `CCCC[C@H](NC(=O)[C@H](CC(C)C)NC(=O)[C@@H](NC(=O)[C@H](CCC(=O)O)NC(=O)[C@H](CCC(=O)O)NC(=O)[C@H](CC(=O)O)NC(=O)[C@@H](NC(=O)[C@H](Cc1ccccc1)NC(C)=O)[C@@H](C)CC)C(C)C)C(=O)N[C@@]1(C)CCCC=CCCC[C@@](C)(C(=O)N[C@@H](CCCC)C(=O)N[C@@H](C)C(=O)N[C@@H](CC(C)C)C(=O)N[C@@H](CC(=O)O)C(=O)N[C@@H](CCC(=O)O)C(=O)N[C@H](C(N)=O)[C@@H](C)CC)NC(=O)[C@H]([C@@H](C)CC)NC(=O)[C@H](C(C)C)NC(=O)[C@H](CC(C)C)NC1=O` [SP-41] (Ac-FIDEEVL[Nle][S5]LVI[S5][Nle]ALDEI-NH2; staple 9-13): the “18 h Avg % max inhibition at top conc” value is “++++ (≥50: ++++)” and the EC50 lay within 15 to 30 µM.

Consider `CCCC[C@H](NC(=O)[C@H](CC(C)C)NC(=O)[C@@H](NC(=O)[C@H](CCC(=O)O)NC(=O)[C@H](CCC(=O)O)NC(=O)[C@H](CC(=O)O)NC(=O)[C@@H](NC(=O)[C@H](CCC(=O)O)NC(C)=O)[C@@H](C)CC)C(C)C)C(=O)N[C@@]1(C)CCCC=CCCC[C@@](C)(C(=O)N[C@@H](CCCC)C(=O)N[C@@H](C)C(=O)N[C@@H](CC(C)C)C(=O)N[C@@H](CC(=O)O)C(=O)N[C@@H](CCCNC(=N)N)C(=O)N[C@H](C(N)=O)[C@@H](C)CC)NC(=O)[C@H]([C@@H](C)CC)NC(=O)[C@H](C(C)C)NC(=O)[C@H](CC(C)C)NC1=O` [SP-30] (Ac-EIDEEVL[Nle][S5]LVI[S5][Nle]ALDRI-NH2; staple 9-13), for which the “18 h Avg % max inhibition at top conc” value is given as “++ (≤10 but <25: ++)” and the EC50 is more than 30 µM.

In the case of `CCCC[C@H](NC(=O)[C@H](CC(C)C)NC(=O)[C@@H](NC(=O)[C@H](CCC(=O)O)NC(=O)[C@H](CCC(=O)O)NC(=O)[C@H](CC(=O)O)NC(=O)[C@@H](NC(=O)[C@H](CN)NC(C)=O)[C@@H](C)CC)C(C)C)C(=O)N[C@@]1(C)CCCC=CCCC[C@@](C)(C(=O)N[C@@H](CCCC)C(=O)N[C@@H](C)C(=O)N[C@@H](CC(C)C)C(=O)N[C@@H](CC(=O)O)C(=O)N[C@@H](CCCNC(=N)N)C(=O)N[C@H](C(N)=O)[C@@H](C)CC)NC(=O)[C@H]([C@@H](C)CC)NC(=O)[C@H](C(C)C)NC(=O)[C@H](CC(C)C)NC1=O` [SP-61] (Ac-[Dap]IDEEVL[Nle][S5]LVI[S5][Nle]ALDRI-NH2; staple 9-13), the “18 h Avg % max inhibition at top conc” value is given as “+ (<10: +)” and the EC50 is more than 30 µM.

As for `CCCC[C@H](NC(=O)[C@H](CC(C)C)NC(=O)[C@@H](NC(=O)[C@H](CCC(=O)O)NC(=O)[C@H](CCC(=O)O)NC(=O)[C@H](CC(=O)O)NC(=O)[C@@H](NC(=O)[C@H](Cc1ccccc1)NC(C)=O)[C@@H](C)CC)C(C)C)C(=O)N[C@@]1(C)CCCC=CCCC[C@@](C)(C(=O)N[C@@H](CCC(=O)O)C(=O)N[C@@H](C)C(=O)N[C@@H](CC(C)C)C(=O)N[C@@H](CC(=O)O)C(=O)N[C@@H](CCCNC(=N)N)C(=O)N[C@H](C(N)=O)[C@@H](C)CC)NC(=O)[C@H]([C@@H](C)CC)NC(=O)[C@H](C(C)C)NC(=O)[C@H](CC(C)C)NC1=O` [SP-38] (Ac-FIDEEVL[Nle][S5]LVI[S5]EALDRI-NH2; staple 9-13), the “18 h Avg % max inhibition at top conc” value was “++++ (≥50: ++++)” and the EC50 was in the range of 15 to 30 µM.

With `CCCC[C@H](NC(=O)[C@H](CC(C)C)NC(=O)[C@@H](NC(=O)[C@H](CCC(=O)O)NC(=O)[C@H](CCC(=O)O)NC(=O)[C@H](CC(=O)O)NC(=O)[C@@H](NC(=O)[C@H](Cc1ccccc1)NC(C)=O)[C@@H](C)CC)C(C)C)C(=O)N[C@@]1(C)CCCC=CCCC[C@@](C)(C(=O)N[C@@H](CCCC)C(=O)N[C@@H](C)C(=O)N[C@@H](CC(C)C)C(=O)N[C@@H](C)C(=O)N[C@@H](CCCNC(=N)N)C(=O)N[C@H](C(N)=O)[C@@H](C)CC)NC(=O)[C@H]([C@@H](C)CC)NC(=O)[C@H](C(C)C)NC(=O)[C@H](CC(C)C)NC1=O` [SP-23] (Ac-FIDEEVL[Nle][S5]LVI[S5][Nle]ALARI-NH2; staple 9-13), the “18 h Avg % max inhibition at top conc” value is on record as “++++ (≥50: ++++)” and the EC50 fell in the range of 5 to 15 µM.
